Test results from patent publication US20040110802A1, “Antibacterial benzoic acid derivatives” (priority 2002, published 2004).
≈ marks a conversion by molar mass, not a printed value.

Test system: SAUR 9218
Assay: MIC Test Method, standard agar dilution
Type: cell-based
Conditions: agar dilution, Mueller Hinton agar, incubated overnight at 35° C.; lowest concentration that inhibits visible growth; read-out: SAUR 9218 MIC
Protocol: The in vitro MiCs of test compounds were determined by a standard agar dilution method. A stock drug solution of each analog was prepared in the preferred solvent, usually DMSO:H2O (1:3). Serial 2-fold dilutions of each sample are made using 1.0 ml aliquots of sterile distil]ed water. To each 1.0 ml aliquot of drug was added 9 ml of molten Mueller Hinton agar medium. The drug-supplemented agar was mixed, poured into 15×100 mm petri dishes, and allowed to solidify and dry prior to inoculation.
Vials of each of the test organisms are maintained frozen in the vapor phase of a liquid nitrogen freezer. Test cultures are grown overnight at 35° C. on the medium appropriate for the organism. Colonies are harvested with a sterile swab, and cell suspensions are prepared in Trypticase Soy broth (TSB) to equal the turbidity of a 0.5 McFamland standard. A 1:20 dilution of each suspension was made in TSB. The plates containing the drug supplemented agar are inoculated with a 0.001 ml drop of the cell suspension using a Steers replicator, yielding approximately 10^4 to 10^5 cells per spot. The plates are incubated overnight at 35° C.
Following incubation the Minimum Inhibitory Concentration (MIC μg/ml), the lowest concentration of drug that inhibits visible growth of the organism, was read and recorded.

| MIC | Compound |
| --- | --- |
| 4 µg/mL (≈ 10.3 µM) | O=C(Nc1ccc(Br)cc1C(=O)O)c1cnc(Cl)c(Cl)c1 |
| 16 µg/mL (≈ 32.9 µM) | O=C(Nc1ccc(Br)cc1C(=O)O)c1ccc2c(c1)S(=O)(=O)c1ccccc1C2=O |
| > 128 µg/mL | COc1ccc(C(=O)Nc2ccc(Br)cc2C(=O)O)c(OC)n1 |
| 16 µg/mL (≈ 39.5 µM) | O=C(Nc1ccc(Br)cc1C(=O)O)c1ccc(Br)s1 |
| > 128 µg/mL | Cc1cc(C(=O)Nc2ccc(Br)cc2C(=O)O)c(C)o1 |
| 64 µg/mL (≈ 160 µM) | O=C(Nc1ccc(Br)cc1C(=O)O)c1cccc(Br)n1 |
| 64 µg/mL (≈ 148 µM) | O=C(Nc1ccc(Br)cc1C(=O)O)c1ccc(-c2ccc([N+](=O)[O-])cc2)o1 |
| 32 µg/mL (≈ 76.1 µM) | O=C(Nc1ccc(Br)cc1C(=O)O)c1ccc(-c2ccc(Cl)cc2)o1 |
| 0.125 µg/mL (≈ 0.326 µM) | N#Cc1ccc(NC(=O)c2noc3cc(-c4ccccc4)ccc23)c(C(=O)O)c1 |
| 2 µg/mL (≈ 5.31 µM) | N#Cc1ccc(NC(=O)c2cc(CNCc3ccccc3)on2)c(C(=O)O)c1 |
| 0.06 µg/mL (≈ 0.167 µM) | N#Cc1ccc(NC(=O)c2noc3c2CCc2ccccc2-3)c(C(=O)O)c1 |
| 64 µg/mL (≈ 186 µM) | N#Cc1ccc(NC(=O)c2cnc(-c3ccccc3)cn2)c(C(=O)O)c1 |
| 2 µg/mL (≈ 5.54 µM) | O=C(O)c1cc(Br)ccc1NC(=O)c1onc2ccccc12 |
| 0.125 µg/mL (≈ 0.311 µM) | N#Cc1ccc(NC(=O)c2noc3ccc(-c4ccccc4F)cc23)c(C(=O)O)c1 |
| 16 µg/mL (≈ 38.8 µM) | N#Cc1ccc(NC(=O)c2ccc(-c3ccccc3C(F)(F)F)nn2)c(C(=O)O)c1 |
| 8 µg/mL (≈ 15.5 µM) | O=C(O)c1cc(Br)ccc1NC(=O)c1cccc2c1CCN(Cc1ccccc1)S2(=O)=O |

| MIC | Compound |
| --- | --- |
| 8 µg/mL (≈ 17.3 µM) | N#Cc1ccc(NC(=O)c2cccc3c2CCN(Cc2ccccc2)S3(=O)=O)c(C(=O)O)c1 |
| 4 µg/mL (≈ 9.52 µM) | Cn1c(C(=O)Nc2ccc(I)cc2C(=O)O)cc2ccccc21 |
| 0.125 µg/mL (≈ 0.223 µM) | Cn1c(C(=O)Nc2ccc(I)cc2C(=O)O)cc2cccc(S(=O)(=O)c3ccccc3)c21 |
| 0.125 µg/mL (≈ 0.293 µM) | Cn1c(C(=O)Nc2ccc(C#N)cc2C(=O)O)cc2cccc(OCc3cccnc3)c21 |
| 1 µg/mL (≈ 2.3 µM) | O=C(Nc1ccc(I)cc1C(=O)O)c1cc(-c2ccccc2)on1 |
| 8 µg/mL (≈ 17 µM) | O=C(Nc1ccc(-c2ccccc2C(F)(F)F)cc1C(=O)O)c1cc(-c2ccccc2F)on1 |
| 0.5 µg/mL (≈ 1.22 µM) | Cc1ccccc1-c1ccc2cc(C(=O)Nc3ccc(C#N)cc3C(=O)O)n(C)c2c1 |
| 1 µg/mL (≈ 2.04 µM) | O=C(Nc1ccc(I)cc1C(=O)O)c1cnc(SCc2ccccc2)cn1 |
| 0.5 µg/mL (≈ 1.12 µM) | N#Cc1ccc(NC(=O)c2noc3c2CN(C(=O)OCc2ccccc2)CC3)c(C(=O)O)c1 |
| 2 µg/mL (≈ 3.28 µM) | Cn1c(C(=O)Nc2ccc(C#N)cc2C(=O)O)cc2c(Br)cc(Br)c(NC(=O)Cc3ccccc3)c21 |
| 0.25 µg/mL (≈ 0.605 µM) | N#Cc1ccc(NC(=O)c2noc3cc(OCc4ccccc4)ccc23)c(C(=O)O)c1 |
| 0.25 µg/mL (≈ 0.524 µM) | N#Cc1ccc(NC(=O)c2noc3cc(OS(=O)(=O)Cc4ccccc4)ccc23)c(C(=O)O)c1 |
| 0.5 µg/mL (≈ 1.08 µM) | N#Cc1ccc(NC(=O)c2noc3cc(OS(=O)(=O)c4ccccc4)ccc23)c(C(=O)O)c1 |
| 0.5 µg/mL (≈ 1.02 µM) | N#Cc1ccc(NC(=O)c2[nH]c3c(OCc4ccccc4)cccc3c2Br)c(C(=O)O)c1 |
| 0.015 µg/mL (≈ 0.0324 µM) | N#Cc1ccc(NC(=O)c2noc3ccc(S(=O)(=O)Nc4ccccc4)cc23)c(C(=O)O)c1 |

The remaining lines, values behind:

| Compound | MIC |
| --- | --- |
| Cc1c(S(=O)(=O)N2CCN(c3cccc(C(F)(F)F)c3)CC2)csc1C(=O)Nc1ccc(Br)cc1C(=O)O | 16 µg/mL (≈ 25.3 µM) |
| CC(C)OCC(O)COc1cccc2cc(C(=O)Nc3ccc(C#N)cc3C(=O)O)n(C)c12 (centres unmarked) | 0.25 µg/mL (≈ 0.554 µM) |
| N#Cc1ccc(NC(=O)c2noc3cc(-c4ccccc4C(F)(F)F)ccc23)c(C(=O)O)c1 | 0.125 µg/mL (≈ 0.277 µM) |
| N#Cc1ccc(NC(=O)c2cc(CN(CCO)CCO)on2)c(C(=O)O)c1 | 8 µg/mL (≈ 21.4 µM) |
| N#Cc1ccc(NC(=O)c2cc(CN=[N+]=[N-])on2)c(C(=O)O)c1 | 4 µg/mL (≈ 12.8 µM) |
| CCCCCCCCCSc1cnc(C(=O)Nc2ccc(C#N)cc2C(=O)O)cn1 | 2 µg/mL (≈ 4.69 µM) |
| CSCCOc1cccc2cc(C(=O)Nc3ccc(C#N)cc3C(=O)O)n(C)c12 | 0.25 µg/mL (≈ 0.611 µM) |
| N#Cc1ccc(NC(=O)C2=NOC(c3ccccc3)C2)c(C(=O)O)c1 (centres unmarked) | 4 µg/mL (≈ 11.9 µM) |
| N#Cc1ccc(NC(=O)c2cc3cccn3cn2)c(C(=O)O)c1 | 32 µg/mL (≈ 104 µM) |
| Cn1c(C(=O)Nc2ccc(C#N)cc2C(=O)O)cc2cccc(NC(=O)c3ccc(N=[N+]=[N-])c(I)c3)c21 | > 128 µg/mL |
| N#Cc1ccc(/C=C/c2noc3ccccc23)c(C(=O)O)c1 | 64 µg/mL (≈ 220 µM) |
| N#Cc1ccc(NC(=O)c2cc(CNCc3ccncc3)on2)c(C(=O)O)c1.O=C(O)C(F)(F)F | 8 µg/mL |
| N#Cc1ccc(NC(=O)c2cc(CSc3ccncc3)on2)c(C(=O)O)c1 | 1 µg/mL (≈ 2.63 µM) |
| CCCCCCSc1ccc(C(=O)Nc2ccc(C#N)cc2C(=O)O)nn1 | 0.03 µg/mL (≈ 0.078 µM) |
| CCCCCCCCSc1cnc(C(=O)Nc2ccc(C#N)cc2C(=O)O)cn1 | 0.5 µg/mL (≈ 1.21 µM) |
| COc1ccc(-c2cnc(C(=O)Nc3ccc(C#N)cc3C(=O)O)cn2)cn1 | > 128 µg/mL |
| N#Cc1ccc(NC(=O)c2noc3c2CCCC3)c(C(=O)O)c1 | 0.5 µg/mL (≈ 1.61 µM) |
| CS(=O)(=O)c1ccc(-c2cnc(C(=O)Nc3ccc(C#N)cc3C(=O)O)cn2)cc1 | > 128 µg/mL |
| Cc1noc(C)c1-c1cnc(C(=O)Nc2ccc(C#N)cc2C(=O)O)cn1 | > 128 µg/mL |
| N#Cc1ccc(NC(=O)c2onc3ccccc23)c(C(=O)O)c1 | 1 µg/mL (≈ 3.25 µM) |
| N#Cc1ccc(NC(=O)c2cc(CNC(=N)N)on2)c(C(=O)O)c1 | 128 µg/mL (≈ 390 µM) |
| CS(=O)(=O)Nc1ccc2c(C(=O)Nc3ccc(C#N)cc3C(=O)O)noc2c1 | 2 µg/mL (≈ 5 µM) |
| N#Cc1ccc(NC(=O)c2noc3cc(NS(=O)(=O)c4ccc(F)cc4)ccc23)c(C(=O)O)c1 | 0.5 µg/mL (≈ 1.04 µM) |
| N#Cc1ccc(NC(=O)c2noc3cc(N)ccc23)c(C(=O)O)c1 | 0.5 µg/mL (≈ 1.55 µM) |
| Cn1c(C(=O)Nc2ccc(C#N)cc2C(=O)O)cc2ccc(-c3ccccc3C(F)(F)F)cc21 | 0.125 µg/mL (≈ 0.27 µM) |
| COc1ccc(-c2ccc3cc(C(=O)Nc4ccc(C#N)cc4C(=O)O)n(C)c3c2)c(OC)c1OC | 0.25 µg/mL (≈ 0.515 µM) |

| Compound | MIC |
| --- | --- |
| O=C(Nc1ccc(I)cc1C(=O)O)c1cc(-c2ccccc2F)on1 | 0.5 µg/mL (≈ 1.11 µM) |
| Cc1ccccc1-c1cc(C(=O)Nc2ccc(I)cc2C(=O)O)no1 | 0.5 µg/mL (≈ 1.12 µM) |
| C[C@@H](CBr)COc1ccccc1-c1cc(C(=O)Nc2ccc(C#N)cc2C(=O)O)no1 | 0.5 µg/mL (≈ 1.03 µM) |
| CCCCCCCSc1ccc(C(=O)Nc2ccc(C#N)cc2C(=O)O)nn1 | 0.015 µg/mL (≈ 0.0376 µM) |
| CCCCCCCSc1cnc(C(=O)Nc2ccc(C#N)cc2C(=O)O)cn1 | 0.25 µg/mL (≈ 0.627 µM) |
| Cc1noc(C)c1-c1ccc2cc(C(=O)Nc3ccc(C#N)cc3C(=O)O)n(C)c2c1 | 1 µg/mL (≈ 2.41 µM) |
| N#Cc1ccc(NC(=O)c2cnc(Cl)cn2)c(C(=O)O)c1 | 32 µg/mL (≈ 106 µM) |
| CCCCCCSc1ccc(C(=O)Nc2ccc(Br)cc2C(=O)O)nn1 | 0.125 µg/mL (≈ 0.285 µM) |
| CCCCCSc1ccc(C(=O)Nc2ccc(C#N)cc2C(=O)O)nn1 | 0.015 µg/mL (≈ 0.0405 µM) |
| O=C(Nc1ccc(I)cc1C(=O)O)c1cnc(Cl)cn1 | 128 µg/mL (≈ 317 µM) |
| Cn1c(C(=O)Nc2ccc(C#N)cc2C(=O)O)cc2c(Br)cc(Br)c(N)c21 | 0.5 µg/mL (≈ 1.02 µM) |
| N#Cc1ccc(NC(=S)c2cc(-c3ccccc3F)on2)c(C(=O)O)c1 | 0.5 µg/mL (≈ 1.36 µM) |
| N#Cc1ccc(NC(=O)c2cc(-c3ccccc3Oc3ccc(-c4ccccc4)cc3)on2)c(C(=O)O)c1 | 16 µg/mL (≈ 31.9 µM) |
| N#Cc1ccc(NC(=O)c2cc(-c3ccccc3Oc3cccc(-c4ccccc4)c3)on2)c(C(=O)O)c1 | > 128 µg/mL |
| N#Cc1ccc(NC(=O)c2cc(CCC(O)CO)on2)c(C(=O)O)c1 (centres unmarked) | 8 µg/mL (≈ 23.2 µM) |
| CC(=O)Oc1ccc2c(C(=O)Nc3ccc(C#N)cc3C(=O)O)noc2c1 | 1 µg/mL (≈ 2.74 µM) |
| N#Cc1ccc(NC(=O)c2noc3cc(O)ccc23)c(C(=O)O)c1 | 1 µg/mL (≈ 3.09 µM) |
| N#Cc1ccc(NC(=O)c2cc(-c3ccccc3Oc3ccccc3-c3ccccc3)on2)c(C(=O)O)c1 | > 128 µg/mL |
| CCCCCCSc1cnc(C(=O)Nc2ccc(C#N)cc2C(=O)O)nc1 | 2 µg/mL (≈ 5.2 µM) |
| COc1ccc2c(C(=O)Nc3ccc(C#N)cc3C(=O)O)noc2c1 | 0.5 µg/mL (≈ 1.48 µM) |
| Cn1c(C(=O)Nc2ccc(C#N)cc2C(=O)O)cc2c(Br)ccc(N)c21 | 1 µg/mL (≈ 2.42 µM) |
| N#Cc1ccc(NC(=O)c2nc3ccccc3[nH]2)c(C(=O)O)c1 | 4 µg/mL (≈ 13.1 µM) |
| O=C(Nc1ccc(Br)cc1C(=O)O)c1cnc(CC(O)[C@H]2COC3(CCCCC3)O2)cn1 (some centres unmarked) | 128 µg/mL (≈ 253 µM) |
| CC(=O)OCC(=O)Nc1ccc2cc(C(=O)Nc3ccc(C#N)cc3C(=O)O)n(C)c2c1 | 1 µg/mL (≈ 2.3 µM) |
| CCN(CC)S(=O)(=O)c1ccc2onc(C(=O)Nc3ccc(C#N)cc3C(=O)O)c2c1 | 0.125 µg/mL (≈ 0.283 µM) |
| Cn1c(C(=O)Nc2ccc(C#N)cc2C(=O)O)cc2ccc(Br)c(N)c21 | 0.5 µg/mL (≈ 1.21 µM) |
